2 molecules from patent US20120329158A1, “Methods of Plant Regeneration and Apparatus Therefor” (priority 2010, published 2012) can be followed below.

This test relates to sugarcane artificial seeds (Q208 and KQ228). As to the kind of experiment: Germination and conversion of sugarcane artificial seeds into plantlets in liquid MS medium with or without auxins. As to conditions: MS medium supplemented with small amounts of auxin; varieties Q208 and KQ228 (FIG. 34). How it is done: Thirty-six artificial plant seeds (approx 15 mL) were placed into a sterile 250 mL Erlenmeyer flask with 85 mL of sterile MS liquid with 30 gL^−1 sucrose. Flasks were placed on the gyratory shaker trays at 120 rpm, 27° C.±1° C., and a 16 h photoperiod provided by cool white fluorescent tubes for 2-3 weeks. The media was decanted off and replaced every 3-4 days.
In this medium the artificial plant seeds germinated and produced normal plantlets within 3 weeks (FIG. 5). The seeds change from a transparent gel bead to a brown-black colour within the first few days of being placed into liquid culture. Within 7-10 days there is shoot production from the seeds and within two weeks the shoots are elongating and root production outside of the artificial plant seed begins. Within 3 weeks the plantlet has fully developed, with both extensive shoot and root production, outside of the gel. Variations in the rate of plantlet emergence are to be expected with different genotypes (FIG. 6 and FIG. 7). Typical growth conditions for liquid culture are 120 rpm and 27° C. with a 16 hour photoperiod.
In general, plantlets produced with growth regulators were stunted if hormone levels were 1 μM compared to those obtained from growth regulator-tee MS medium. As such, MS is typically used for the liquid culture medium. Regeneration of artificial plant seeds into plantlets at a rate of 70-90% is achievable. […]

For `O=C(O)CCCc1c[nH]c2ccccc12` [indole-3 butyric acid (IBA), indole-3-butyric acid], the “conversion of artificial seeds to plantlets” value was “improved conversion of seeds to plantlets”.
The result for `O=C(O)Cc1cccc2ccccc12` [α-naphthaleneacetic acid (NAA), α-naphthaleneacetic acid] reads “improved conversion of seeds to plantlets”.
